Measured values published in patent publication US20110070326A1, “OREGANO EXTRACT AND ITS COMPONENTS FOR ENHANCING VIGILANCE” (DSM IP ASSETS B.V., priority 2006, published 2011).
Values joined by “and” are separate entries in the source; they are usually repeats but may differ in a detail not shown here. Identical values can stand only once.

What was measured:
[1] = Plasma level of free and total carvacrol after oral oregano extract 4 (LC/MS/MS); format: in vivo, rat; settings: individual animals
Method: 4 male and 4 female rats received a single dose of 800 mg of oregano extract 4 per kg body weight by oral gavage, respectively. The application solution was prepared in corn oil at a concentration of 200 mg extract per gram formulation.
The sample analysis was performed with a liquid chromatography—tandem mass spectrometry (LC/MS/MS) system, using a column switching system for online cleaning and desalting of the samples.
After addition of internal standard (D2-thymol) and protein precipitation (in case of “free” analyte) or pre-digesting by β-glucuronidase followed by protein precipitation (in case of “total” analyte), the samples were injected on a Waters XTerra™ MS C18 guard-column used as purification column, then transferred onto a Waters XTerra™ C18 column. Detection was performed using tandem mass spectrometry in MRM mode.
Calibration and quality control samples were prepared in 5% Albumin bovine serum solution and human plasma.

mice [2] = assay: Porsolt's Forced Swim Test (Behavioral Despair Test), i.p.; format: in vivo, mouse; settings: 16 mg/kg i.p., −30 min, 15 mice
Method: The test, which detects antidepressant activity, was carried out as described by Porsolt et al supra. Mice which are forced to swim in a situation from which they cannot escape rapidly become immobile. Antidepressants decrease the duration of immobility.
Mice were individually placed in cylinders (Height=24 cm, Diameter=13 cm) containing 10 cm water (22° C.) from which they could not escape. The mice were placed in the water for 6 minutes and the duration of immobility during the last 4 minutes was measured.
15 mice were studied per each of the four groups.
Oregano extract 1 was evaluated at 3 doses (10, 30 and 60 mg/kg), administered i.p. 30 minutes before the test, and compared with a control group, administered vehicle in the same manner. The thus administered […] was dissolved in vehicle (saline solution containing 3% (v/v) DMSO and 3% (v/v) Tween® 80). Venlafaxine (16 mg/kg, i.p.), as comparison substance, and imipramine (32 mg/kg, i.p.), as reference compound, were administered under the same experimental conditions.
Data were analyzed by comparing the treated groups with the control group using unpaired Student's t tests and are presented in Table 3.

mice [3] = assay: Marble burying test; format: in vivo, mouse; settings: for NUMBER OF MARBLES COVERED BY SAWDUST Mean ± s.e.m.: 25 marbles, 30-minute test, 15 mice
Method: The method applied here follows that described by Broekkamp et al. 1986, supra. Mice (n=15 per treatment group) were individually placed in transparent plastic cages (33×21×18 cm) with 5 cm of sawdust on the floor and 25 marbles (diameter 1 cm) grouped in the centre of the cage. A second, up-tamed, cage served as a lid. The number of marbles covered by sawdust (by at least two-thirds) was counted at the end of the 30-minute test period. Tests were performed by investigators blind to the drug treatment protocol.
Prior to testing, all test cages and marbles were “impregnated” by leaving 10 naive mice in each cage for 15 minutes.
Oregano extract 1 was evaluated at 10, 30 and 60 mg/kg, administered i.p. 30 minutes before the test, and compared with a vehicle control group. Oregano extract 1 was dissolved in a saline solution containing 3% (v/v) DMSO and 3% (v/v) Tween® 80 “vehicle”. The control group were administered vehicle in the same manner, while fluoxetine (32 mg/kg), administered under the same experimental conditions, was used as a reference substance. Data were analyzed by comparing treated groups with vehicle control using unpaired Student's t-tests.

mouse = assay: Light Dark Box Test in the mouse; format: in vivo; settings: 16 mg/kg i.p. −30 min; for NUMBER OF CROSSINGS mean ± s.e.m. / TIME SPENT IN LIGHT COMPARTMENT (s) mean ± s.e.m.: 3-minute test, 15 mice
Text: The method, which detects anxiolytic activity, follows that described by Crawley, 1981 Pharmacol. Biochem. Behav., 15: 695-699. Anxiolytics increase the time spent in the light compartment.
Animals were placed into the light compartment of a 2-compartment box with one half light and open (25×27×27 cm) and the other half dark and closed (20×27×27 cm). The time spent in each compartment, as well as the number of times the animal crosses from one side to the other, is scored during a 3-minute test. 15 mice were studied per group. The test was performed blind.
Oregano extract 1 was evaluated at 3 doses (10, 30 and 60 mg/kg), administered i.p. 30 minutes before the test, and compared with a vehicle control group. Oregano extract 1 was dissolved in a saline solution containing 3% (v/v) DMSO and 3% (v/v) Tween® 80 (“vehicle”). The control group was administered vehicle, venlafaxine (16 mg/kg i.p) was used as comparison substance and clobazam (16 mg/kg i.p) was used as reference substance, all being administered i.p., 30 minutes prior to the test.

[4] = tested on: hippocampal serotonin (5HT) levels; assay: Hippocampal serotonin levels by in vivo microdialysis; design: species or system rat; settings: cumulative 5HT in dosing period, n = 5-6 rats
Method: Male Sprague-Dawley rats (250-320 g) were housed in groups of 4-5 under conditions of controlled temperature (21±2° C.) and humidity (55±10%) with free access to food and water (lights on 07.00-19.00). Rats were anaesthetised using chloral hydrate (400 mg/kg i.p.) and a single microdialysis probe (BASi type MD2200, 2 mm membrane, 30,000 dalton cut-off) implanted in the dorsal hippocampus using a stereotaxic frame at the following coordinates (rostro-caudal—4.5 mm; media-lateral—2.5 mm; dorso-ventral—4.5 mm from bregma and dura surface according to Paxinos & Watson 6) and fixed in position with dental cement. Body temperature was maintained at 36° C. using a heating pad and monitored via a digital rectal thermometer. The microdialysis probe was perfused with artificial cerebrospinal fluid (aCSF) at 1 μl/min and extracellular monoamine levels determined by collection of perfusate samples every 15 min and assayed using high-performance liquid chromatography (HPLC) with electrochemical detection.
The HPLC mobile phase (0.5 mM EDTA, 0.1M monochloroacetic acid pH 3.1, 0.15 g/L sodium octyl sulphate, 5% acetonitrile, 0.7% tetrahydrofuran) was pumped through the system at 70 μl/min. Monoamines were separated using a reverse-phase 1×100 mm ODS 3 mm microbore column with 5 μl injection loop and detected using a Epsilon electrochemical detector (BAST) with a glassy carbon electrode set at +650 mV versus Ag/AgCl reference electrode. Dialysate peaks were identified by comparing peak elution times with reference standards and quantified according to measurement of peak area using linear regression analysis. The detection limits for 5HT and SHIAA were defined as the sample amount producing a peak area twice that of the background noise per unit time and were approximately 0.1 fmol/sample in both cases. […]
For routine assay, two rats were prepared of which one was used to test the oregano extract and the other a control (vehicle) sample. […] Data from replicate studies for each compound are therefore expressed as % Basal level, as is normal practice for microdialysis studies. […]

Compound: Cc1ccc(C(C)C)cc1O [Carvacrol]
- Free Carvacrol (ng/mL) in plasma ([1]; female rats, 0.5 h after single 800 mg/kg oregano extract 4 by oral gavage in corn oil): 5120 ng/mL and 4090 ng/mL and 50100 ng/mL and 30.9 ng/mL
- Free Carvacrol (ng/mL) in plasma ([1]; female rats, 1 h after single 800 mg/kg oregano extract 4 by oral gavage in corn oil): 6050 ng/mL and 3610 ng/mL and 192 ng/mL
- Free Carvacrol (ng/mL) in plasma ([1]; female rats, 2 h after single 800 mg/kg oregano extract 4 by oral gavage in corn oil): 840 ng/mL and 1360 ng/mL and 64.3 ng/mL
- Free Carvacrol (ng/mL) in plasma ([1]; female rats, 3 h after single 800 mg/kg oregano extract 4 by oral gavage in corn oil): 228 ng/mL and 174 ng/mL
- Free Carvacrol (ng/mL) in plasma ([1]; female rats, 4 h after single 800 mg/kg oregano extract 4 by oral gavage in corn oil): 246 ng/mL and 102 ng/mL and 50.3 ng/mL
- Free Carvacrol (ng/mL) in plasma ([1]; female rats, 6 h after single 800 mg/kg oregano extract 4 by oral gavage in corn oil): 135 ng/mL and 91.9 ng/mL and 48.3 ng/mL
- Free Carvacrol (ng/mL) in plasma ([1]; female rats, 8 h after single 800 mg/kg oregano extract 4 by oral gavage in corn oil): 159 ng/mL and 1630 ng/mL and <LOQ = 10.0 ng/mL
- Free Carvacrol (ng/mL) in plasma ([1]; female rats, 24 h after single 800 mg/kg oregano extract 4 by oral gavage in corn oil): 127 ng/mL and 8.91 ng/mL and <LOQ = 10.0 ng/mL
- concentration at 3 h ([1]; female, rat, plasma, po, 800 mg/kg, Free Carvacrol (ng/mL) in plasma, female rats, 3 h after single 800 mg/kg oregano extract 4 by oral gavage in corn oil): 128 ng/mL
- Free Carvacrol (ng/mL) in plasma ([1]; male rats, 0.5 h after single 800 mg/kg oregano extract 4 by oral gavage in corn oil): 1530 ng/mL and 103 ng/mL and 55.9 ng/mL and 1320 ng/mL
- Free Carvacrol (ng/mL) in plasma ([1]; male rats, 1 h after single 800 mg/kg oregano extract 4 by oral gavage in corn oil): 1150 ng/mL and 1820 ng/mL
- Free Carvacrol (ng/mL) in plasma ([1]; male rats, 2 h after single 800 mg/kg oregano extract 4 by oral gavage in corn oil): 166 ng/mL and 584 ng/mL and 199 ng/mL
- Free Carvacrol (ng/mL) in plasma ([1]; male rats, 3 h after single 800 mg/kg oregano extract 4 by oral gavage in corn oil): 51.5 ng/mL and 58.4 ng/mL and 1580 ng/mL
- Free Carvacrol (ng/mL) in plasma ([1]; male rats, 4 h after single 800 mg/kg oregano extract 4 by oral gavage in corn oil): 30.4 ng/mL and 40 ng/mL and 316 ng/mL
- Free Carvacrol (ng/mL) in plasma ([1]; male rats, 6 h after single 800 mg/kg oregano extract 4 by oral gavage in corn oil): 83.4 ng/mL and 980 ng/mL and 100 ng/mL
- Free Carvacrol (ng/mL) in plasma ([1]; male rats, 8 h after single 800 mg/kg oregano extract 4 by oral gavage in corn oil): 156 ng/mL and 140 ng/mL
- Free Carvacrol (ng/mL) in plasma ([1]; male rats, 24 h after single 800 mg/kg oregano extract 4 by oral gavage in corn oil): <LOQ = 10.0 ng/mL
- concentration at 1 h ([1]; male, rat, plasma, po, 800 mg/kg, Free Carvacrol (ng/mL) in plasma, male rats, 1 h after single 800 mg/kg oregano extract 4 by oral gavage in corn oil): 1790 ng/mL
- concentration at 8 h ([1]; male, rat, plasma, po, 800 mg/kg, Free Carvacrol (ng/mL) in plasma, male rats, 8 h after single 800 mg/kg oregano extract 4 by oral gavage in corn oil): 185 ng/mL
- concentration at 24 h ([1]; male, rat, plasma, po, 800 mg/kg, Free Carvacrol (ng/mL) in plasma, male rats, 24 h after single 800 mg/kg oregano extract 4 by oral gavage in corn oil): 68.1 ng/mL

Compound: COc1ccc(C(CN(C)C)C2(O)CCCCC2)cc1 (stereo not drawn) [Venlafaxine]
- DURATION OF IMMOBILITY % change from control (mice [2]): −51%
- DURATION OF IMMOBILITY (s) Mean ± s.e.m. (mice [2]): 80.1 ± 11.1 s
- DURATION OF IMMOBILITY % change from control (mice [2]; listed as venlafaxine): −51%
- NUMBER OF MARBLES COVERED BY SAWDUST % change from control (mice [3]; 16 mg/kg i.p. −30 min): −98%
- NUMBER OF MARBLES COVERED BY SAWDUST Mean ± s.e.m. (mice [3]; 16 mg/kg i.p., −30 min): 0.5 ± 0.3
- NUMBER OF MARBLES COVERED BY SAWDUST % change from control (mice [3]; 16 mg/kg i.p., −30 min, listed as venlafaxine): −98%
- NUMBER OF CROSSINGS % change from control (mouse): −6%
- TIME SPENT IN LIGHT COMPARTMENT % change from control (mouse): 0%
- NUMBER OF CROSSINGS mean ± s.e.m. (mouse): 4.4 ± 0.9
- TIME SPENT IN LIGHT COMPARTMENT (s) mean ± s.e.m. (mouse): 55.2 ± 9.3 s

Compound: CN1C(=O)CC(=O)N(c2ccccc2)c2cc(Cl)ccc21 [Clobazam]
- NUMBER OF CROSSINGS % change from control (mouse): +68%
- TIME SPENT IN LIGHT COMPARTMENT % change from control (mouse): +114%
- NUMBER OF CROSSINGS mean ± s.e.m. (mouse): 7.9 ± 0.9
- TIME SPENT IN LIGHT COMPARTMENT (s) mean ± s.e.m. (mouse): 118.4 ± 3.4 s

Compound: CNCCC(Oc1ccc(C(F)(F)F)cc1)c1ccccc1 (stereo not drawn) [Fluoxetine]
- NUMBER OF MARBLES COVERED BY SAWDUST % change from control (mice [3]; 32 mg/kg i.p., −30 min): −93%
- NUMBER OF MARBLES COVERED BY SAWDUST Mean ± s.e.m. (mice [3]; 32 mg/kg i.p., −30 min): 1.4 ± 1.0
- 5-HT LEVEL (% basal) Mean ± s.e.m. ([4]; 3 mg/kg i.p., injection 150 min post-surgery): 85 ± 4 % basal
- 5-HT LEVEL (% basal) Mean ± s.e.m. ([4]; 10 mg/kg i.p., injection 210 min post-surgery): 131 ± 9 % basal
- 5-HT LEVEL (% basal) Mean ± s.e.m. ([4]; 30 mg/kg i.p., injection 270 min post-surgery): 160 ± 7 % basal
